Experimental data taken from PMC5386672, “Structure-guided design of purine-based probes for selective Nek2 inhibition” (Oncotarget, 2016).

Columns and labels:
CDK2 = CDK2 (Homo sapiens, UniProt P24941); experiment: CDK2 kinase inhibition assay; format: biochemical; conditions: for IC50: 12.5 μM ATP; for selectivity for CDK2 over Nek2: from IC50 values
Nek2 = biological target: T1, Nek2 (Homo sapiens, UniProt P51955); experiment: Nek2 Caliper kinase inhibition assay; format: biochemical; conditions: 30 μM ATP; for IC50: Caliper assay; for inhibition at 50 µM: @ 50 μM compound
T1 construct: purchased Invitrogen
T1 sequence (P51955 1-445): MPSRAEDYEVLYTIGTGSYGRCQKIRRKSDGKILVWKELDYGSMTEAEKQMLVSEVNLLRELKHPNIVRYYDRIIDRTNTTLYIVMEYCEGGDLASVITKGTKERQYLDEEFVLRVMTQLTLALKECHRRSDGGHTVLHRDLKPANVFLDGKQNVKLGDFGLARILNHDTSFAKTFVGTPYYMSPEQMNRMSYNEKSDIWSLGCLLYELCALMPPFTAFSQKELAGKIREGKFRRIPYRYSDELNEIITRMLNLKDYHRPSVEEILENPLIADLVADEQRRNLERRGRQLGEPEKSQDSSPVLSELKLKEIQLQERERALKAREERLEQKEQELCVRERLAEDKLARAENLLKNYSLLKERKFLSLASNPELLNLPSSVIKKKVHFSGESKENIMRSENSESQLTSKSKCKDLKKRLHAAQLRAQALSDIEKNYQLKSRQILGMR

IC50 (CDK2) | IC50 (Nek2) | melting point | inhibition at 50 µM (Nek2) | SMILES | selectivity for CDK2 over Nek2 (CDK2)
– | 22000 nM | – | – | c1ccc(Nc2nc(OCC3CCCCC3)c3nc[nH]c3n2)cc1 [2-aminophenyl-6-(cyclohexylmethoxy)-9H-purine] | –
– | 12000 nM | – | – | NS(=O)(=O)c1ccc(Nc2nc(OCC3CCCCC3)c3nc[nH]c3n2)cc1 [Compound 6] | –
5600 nM | 890 nM | – | – | CCOc1nc(Nc2cccc(CC(=O)NCCCN(C)C)c2)nc2[nH]cnc12 [Compound 7] | –
830 nM | 15000 nM | 252 to 254 °C | – | CNC(=O)c1cccc(Nc2nc(OCC3CCCCC3)c3nc[nH]c3n2)c1 [Compound 10, 3-(6-Cyclohexylmethoxy-9H-purin-2-ylamino)-N-methylbenzamide] | –
5700 nM | 5200 nM | 231 to 232 °C (dec.) | – | CN(C)C(=S)c1cccc(Nc2nc(OCC3CCCCC3)c3nc[nH]c3n2)c1 [Compound 12, 3-(6-Cyclohexylmethoxy-9H-purin-2-ylamino)-N,N-dimethylthiobenzamide] | –
330 nM | – | 148 to 149 °C (dec.) | 46% | NC(=S)c1cccc(Nc2nc(OCC3CCCCC3)c3nc[nH]c3n2)c1 [Compound 13, 3-(6-Cyclohexylmethoxy-9H-purin-2-ylamino)thiobenzamide] | –
3500 nM | – | 143 to 145 °C | 40% | CN(C)S(=O)(=O)c1cccc(Nc2nc(OCC3CCCCC3)c3nc[nH]c3n2)c1 [Compound 14, 3-(6-Cyclohexylmethoxy-9H-purin-2-ylamino)-N,N-dimethylbenzenesulfonamide] | –
320 nM | 1300 nM | 176 to 177 °C | – | CNC(=O)Cc1cccc(Nc2nc(OCC3CCCCC3)c3nc[nH]c3n2)c1 [Compound 15] | –
1100 nM | 2200 nM | 161 to 163 °C | – | O=C(NCCN1CCOCC1)Nc1ccc(Nc2nc(OCC3CCCCC3)c3nc[nH]c3n2)cc1 [Compound 16, 1-(4-(6-(Cyclohexylmethoxy)-9H-purin-2-ylamino)phenyl)-3-(2-morpholinoethyl)urea] | –
860 nM | 1100 nM | – | – | O=C(NCCN1CCCCC1)Nc1ccc(Nc2nc(OCC3CCCCC3)c3nc[nH]c3n2)cc1 [Compound 17, 1-(4-(6-(Cyclohexylmethoxy)-9H-purin-2-ylamino)phenyl)-3-(2-(piperidin-1-yl)ethyl)urea] | –
720 nM | 1200 nM | 110 to 112 °C | – | CN(C)CCCNC(=O)Nc1ccc(Nc2nc(OCC3CCCCC3)c3nc[nH]c3n2)cc1 [Compound 18, 1-(4-(6-(Cyclohexylmethoxy)-9H-purin-2-ylamino)phenyl)-3-(3-(dimethylamino)propyl)urea] | –
1900 nM | > 50000 nM | 180 to 181 °C | – | O=[N+]([O-])c1ccc(Nc2nc(OCC3CCCCC3)c3nc[nH]c3n2)cc1 [Compound 19, 6-(Cyclohexylmethoxy)-N-(4-nitrophenyl)-9H-purin-2-amine] | –
890 nM | > 50000 nM | 217 to 218 °C | – | O=[N+]([O-])c1cccc(Nc2nc(OCC3CCCCC3)c3nc[nH]c3n2)c1 [Compound 20, 6-(Cyclohexylmethoxy)-N-(3-nitrophenyl)-9H-purin-2-amine] | –
220 nM | 6300 nM | 228 to 230 °C | – | Nc1ccc(Nc2nc(OCC3CCCCC3)c3[nH]cnc3n2)cc1 [Compound 21, 2-(4-Aminophenyl)amino-6-cyclohexylmethoxy-purine] | –
700 nM | 5900 nM | 117 to 118 °C (dec.) | – | Nc1cccc(Nc2nc(OCC3CCCCC3)c3[nH]cnc3n2)c1 [Compound 22, 2-(3-Aminophenyl)amino-6-cyclohexylmethoxy-purine] | –
990 nM | 4300 nM | 182 to 184 °C (dec.) | – | O=C(O)c1cccc(Nc2nc(OCC3CCCCC3)c3nc[nH]c3n2)c1 [Compound 23, 3-(6-Cyclohexylmethoxy-9H-purin-2-ylamino)benzoic acid] | –
880 nM | 8300 nM | – | – | CC(=O)Nc1cccc(Nc2nc(OCC3CCCCC3)c3nc[nH]c3n2)c1 [Compound 27, N-(3-(6-(Cyclohexylmethoxy)-9H-purin-2-ylamino)phenyl)acetamide] | –
9700 nM | 24000 nM | – | – | CC(C)(C)C(=O)Nc1ccc(Nc2nc(OCC3CCCCC3)c3nc[nH]c3n2)cc1 [Compound 28, N-(4-(6-(Cyclohexylmethoxy)-9H-purin-2-ylamino)phenyl)pivalamide] | –

IC50 (CDK2) | IC50 (Nek2) | melting point | inhibition at 50 µM (Nek2) | SMILES | selectivity for CDK2 over Nek2 (CDK2)
2900 nM | – | – | 36% | O=C(Nc1ccc(Nc2nc(OCC3CCCCC3)c3nc[nH]c3n2)cc1)c1ccccc1 [Compound 29, N-(4-(6-(Cyclohexylmethoxy)-9H-purin-2-ylamino)phenyl)benzamide] | –
2200 nM | – | 248 to 250 °C (dec.) | 51% | O=C(Nc1ccc(Nc2nc(OCC3CCCCC3)c3nc[nH]c3n2)cc1)c1ccncc1 [Compound 30, N-[4-(6-Cyclohexylmethoxy-9H-purin-2-ylamino)phenyl]isonicotinamide] | –
380 nM | 3600 nM | 193 to 194 °C | – | NC(=O)Nc1cccc(Nc2nc(OCC3CCCCC3)c3nc[nH]c3n2)c1 [Compound 31, 1-(3-(6-(Cyclohexylmethoxy)-9H-purin-2-ylamino)phenyl) urea] | 10 fold
18000 nM | – | 133 to 135 °C | 57% | O=C(c1cccc(Nc2nc(OCC3CCCCC3)c3nc[nH]c3n2)c1)N1CCCCC1 [Compound 32, [3-(6-Cyclohexylmethoxy-9H-purin-2-ylamino)phenyl]piperidin-1-ylmethanone] | –
730 nM | 3800 nM | 125 to 127 °C | – | CN(C)CCCCNC(=O)c1cccc(Nc2nc(OCC3CCCCC3)c3nc[nH]c3n2)c1 [Compound 33, 3-(6-Cyclohexylmethoxy-9H-purin-2-ylamino)-N-(4-dimethylaminobutyl)benzamide] | –
940 nM | – | 144 to 145 °C | 79% | CC(C)CNC(=O)Cc1cccc(Nc2nc(OCC3CCCCC3)c3nc[nH]c3n2)c1 [Compound 34, 2-[3-(6-Cyclohexylmethoxy-9H-purin-2-anilino)]-N-isobutylacetamide] | –
1100 nM | 4100 nM | 228 to 229 °C | – | O=C(Cc1cccc(Nc2nc(OCC3CCCCC3)c3nc[nH]c3n2)c1)NC1CCCC1 [Compound 35] | –
2100 nM | 8400 nM | 226 to 227 °C | – | O=C(Cc1cccc(Nc2nc(OCC3CCCCC3)c3nc[nH]c3n2)c1)NC1CCCCC1 [Compound 36] | –
1600 nM | – | 134 to 135 °C | 26% | CN(C(=O)Cc1cccc(Nc2nc(OCC3CCCCC3)c3nc[nH]c3n2)c1)C1CCCCC1 [Compound 37] | –
3200 nM | 21000 nM | 126 to 127 °C | – | CC(C)N(C(=O)Cc1cccc(Nc2nc(OCC3CCCCC3)c3nc[nH]c3n2)c1)C(C)C [Compound 38] | –
740 nM | – | 141 to 142 °C (dec.) | 82% | CCCNC(=O)Cc1cccc(Nc2nc(OCC3CCCCC3)c3nc[nH]c3n2)c1 [Compound 39] | –
800 nM | 1300 nM | 132 to 133 °C | – | O=C(Cc1cccc(Nc2nc(OCC3CCCCC3)c3nc[nH]c3n2)c1)NCCCO [Compound 40] | –
1600 nM | 6130 nM | 192 to 193 °C | – | O=C(Cc1cccc(Nc2nc(OCC3CCCCC3)c3nc[nH]c3n2)c1)NCCCn1ccnc1 [Compound 41, 2-[3-(6-Cyclohexylmethoxy-9H-purin-2-ylamino)phenyl]-N-(3-imidazol-1-yl-propyl)acetamide] | –
3700 nM | – | – | 29% | CC(C)CCNC(=O)Cc1cccc(Nc2nc(OCC3CCCCC3)c3nc[nH]c3n2)c1 [Compound 44, 2-[3-(6-Cyclohexylmethoxy-9H-purin-2-ylamino)phenyl]-N-(3-methylbutyl)acetamide] | –
770 nM | 830 nM | – | – | CN(C)S(=O)(=O)Cc1cccc(Nc2nc(OCC3CCCCC3)c3nc[nH]c3n2)c1 [Compound 48, [3-(6-Cyclohexylmethoxy-9H-purin-2-ylamino)-phenyl]-N,N-dimethylmethanesulfonamide] | –
1600 nM | – | – | 53% | O=S(=O)(Cc1cccc(Nc2nc(OCC3CCCCC3)c3nc[nH]c3n2)c1)N1CCCCC1 [Compound 49, 1-(3-(6-Cyclohexylmethoxy-9H-purin-2-ylamino)phenylmethanesulfonyl)piperidine] | –
– | – | 178 to 179 °C | – | CCOc1nc(Nc2cccc(CC(=O)NCCCN(C)C)c2)nc2[nH]cnc12 [Compound 59, N-(3-Dimethylaminopropyl)-2-[3-(6-ethoxy-9H-purin-2-ylamino)phenyl]acetamide] | –

SMILES | IC50 (CDK2) | IC50 (Nek2) | melting point | inhibition at 50 µM (Nek2) | selectivity for CDK2 over Nek2 (CDK2)
CCC(C)Oc1nc(Nc2cccc(CC(=O)NCCCN(C)C)c2)nc2[nH]cnc12 (racemic) [Compound 60, (±)-2-[3-(6-sec-Butoxy-9H-purin-2-ylamino)phenyl]-N-(3-dimethylaminopropyl)acetamide] | 410 nM | 4900 nM | 97 to 98 °C | – | 10 fold
